What was measured:
Type in all cases: in vivo
[1] = test system: Beet Armyworm (Spodoptera exigua, LAPHEG) ("BAW"); experiment: Bioassays on Beet Armyworm (BAW), 128-well diet tray assay; details: Spodoptera exigua, 168 h; second instar BAW larvae, 50 μg/cm^2 on artificial diet, five to seven days, 25° C.; read-out: BAW % Control (or Mortality) rating
Experimental: (§1) Certain molecules disclosed in this document were tested against BAW and CEW using procedures described in the following examples. In the reporting of the results, the “BAW & CL Rating Table” was used (See Table Section).
Bioassays on BAW were conducted using a 128-well diet tray assay. one to five second instar BAW larvae were placed in each well (3 mL) of the diet tray that had been previously filled with 1 mL of artificial diet to which 50 μg/cm^2 of the test compound (dissolved in 50 μL of 90:10 acetone-water mixture) had been applied (to each of eight wells) and then allowed to dry. Trays were covered with a clear self-adhesive cover and held at 25° C., 14:10 light-dark for five to seven days. Percent mortality was recorded for the larvae in each well; activity in the eight wells was then averaged. The results are indicated in the table entitled “Table ABC: Biological Results” (See Table Section).

[2] = test system: Cabbage Looper (Trichoplusia ni, TRIPNI) ("CL"); experiment: Bioassays on Cabbage Looper (CL), 128-well diet tray assay; details: Trichoplusia ni, 168 h, read-out: CL % Control (or Mortality) rating
Experimental: as §1
Bioassays on CL were conducted using a 128-well diet tray assay. one to five second instar CL larvae were placed in each well (3 mL) of the diet tray that had been previously filled with 1 mL of artificial diet to which 50 μg/cm^2 of the test compound (dissolved in 50 μL of 90:10 acetone-water mixture) had been applied (to each of eight wells) and then allowed to dry. Trays were covered with a clear self-adhesive cover and held at 25° C., 14:10 light-dark for five to seven days. Percent mortality was recorded for the larvae in each well; activity in the eight wells was then averaged. The results are indicated in the table entitled “Table ABC: Biological Results” (See Table Section).

[3] = test system: Yellow Fever Mosquito (Aedes aegypti, AEDSAE) ("YFM"); details: about 1 day-old larvae, 4000 ppm master solution diluted, 3 days, room temperature
Experimental: Certain molecules disclosed in this document were tested against YFM using procedures described in the following paragraph. In the reporting of the results, the “YFM Rating Table” was used (See Table Section).
Master plates containing 400 μg of a molecule dissolved in 100 μL of dimethyl sulfoxide (DMSO) (equivalent to a 4000 ppm solution) are used. A master plate of assembled molecules contains 15 μL per well. To this plate, 135 μL of a 90:10 water:acetone mixture is added to each well. A robot (Biomek® NXP Laboratory Automation Workstation) is programmed to dispense 15 μL aspirations from the master plate into an empty 96-well shallow plate (“daughter” plate). There are 6 reps (“daughter” plates) created per master. The created daughter plates are then immediately infested with YFM larvae.
The day before plates are to be treated, mosquito eggs are placed in Millipore water containing liver powder to begin hatching (4 g. into 400 mL). After the daughter plates are created using the robot, they are infested with 220 μL of the liver powder/larval mosquito mixture (about 1 day-old larvae). After plates are infested with mosquito larvae, a non-evaporative lid is used to cover the plate to reduce drying. Plates are held at room temperature for 3 days prior to grading. After 3 days, each well is observed and scored based on mortality.

| Structure (SMILES) | mortality at 50 µg/cm2 [1] | mortality at 50 µg/cm2 [2] | YFM % Control (or Mortality) rating [3] |
| --- | --- | --- | --- |
| Cc1ccccc1-c1cc(C(=O)Nc2ccc(-c3ncn(-c4ccc(OC(F)(F)F)cc4)n3)cc2)ccc1Cl [F32, 6-Chloro-2′-methyl-N-(4-(1-(4-(trifluoromethoxy)phenyl)-1H-1,2,4-triazol-3-yl)phenyl)-[1,1′-biphenyl]-3-carboxamide] | 0% | 50 to 100% | D (No activity noticed in this bioassay) |
| COc1ccc(C(=O)Nc2ccc(-c3ncn(-c4ccc(OC(F)(F)C(F)(F)F)cc4)n3)cc2)cc1-c1ccccc1 [F13, 6-Methoxy-N-(4-(1-(4-(perfluoroethoxy)phenyl)-1H-1,2,4-triazol-3-yl)phenyl)-[1,1′-biphenyl]-3-carboxamide] | 0% | 50 to 100% | D (No activity noticed in this bioassay) |
| COc1ccc(-c2cccc(C(=O)Nc3ccc(-c4ncn(-c5ccc(OC(F)(F)F)cc5)n4)cc3)c2)c(C)c1 [F49, 4′-Methoxy-2′-methyl-N-(4-(1-(4-(trifluoromethoxy)phenyl)-1H-1,2,4-triazol-3-yl)phenyl)-[1,1′-biphenyl]-3-carboxamide] | 50 to 100% | 50 to 100% | B (More than 0-Less than 80) |
| CN(C)c1ccccc1-c1cccc(C(=O)Nc2ccc(-c3ncn(-c4ccc(OC(F)(F)F)cc4)n3)cc2)c1 [F10, 2′-(Dimethylamino)-N-(4-(1-(4-(trifluoromethoxy)phenyl)-1H-1,2,4-triazol-3-yl)phenyl)-[1,1′-biphenyl]-3-carboxamide] | 50 to 100% | 50 to 100% | B (More than 0-Less than 80) |
| O=C(Nc1ccc(-c2ncn(-c3ccc(OC(F)(F)F)cc3)n2)cc1)c1cc(-c2ccccc2)ccc1Cl [F15, 4-Chloro-N-(4-(1-(4-(trifluoromethoxy)phenyl)-1H-1,2,4-triazol-3-yl)phenyl)-[1,1′-biphenyl]-3-carboxamide] | 0% | 0% | D (No activity noticed in this bioassay) |
| O=C(Nc1ccc(-c2ncn(-c3ccc(OC(F)(F)C(F)(F)F)cc3)n2)cc1)c1cccc(-c2ccccc2)c1 [F45, N-(4-(1-(4-(perfluoroethoxy)phenyl)-1H-1,2,4-triazol-3-yl)phenyl)-[1,1′-biphenyl]-3-carboxamide] | 50 to 100% | 50 to 100% | D (No activity noticed in this bioassay) |
| Cc1ccccc1-c1cc(F)cc(C(=O)N(C)c2ccc(-c3ncn(-c4ccc(OC(F)(F)C(F)(F)F)cc4)n3)cc2)c1 [F29, 5-fluoro-N,2′-dimethyl-N-(4-(1-(4-(perfluoroethoxy)phenyl)-1H-1,2,4-triazol-3-yl)phenyl)-[1,1′-biphenyl]-3-carboxamide] | 50 to 100% | 0% | D (No activity noticed in this bioassay) |
| O=C(Nc1ccc(-c2ncn(-c3ccc(OC(F)(F)F)cc3)n2)cc1)c1ccc(F)c(-c2ccccc2)c1 [F11, 6-Fluoro-N-(4-(1-(4-(trifluoromethoxy)phenyl)-1H-1,2,4-triazol-3-yl)phenyl)-[1,1′-biphenyl]-3-carboxamide] | 50 to 100% | 50 to 100% | D (No activity noticed in this bioassay) |
| O=C(Nc1ccc(-c2ncn(-c3ccc(OC(F)(F)F)cc3)n2)cc1)c1ccc(Cl)c(-c2ccccc2)c1 [F34, 6-Chloro-N-(4-(1-(4-(trifluoromethoxy)phenyl)-1H-1,2,4-triazol-3-yl)phenyl)-[1,1′-biphenyl]-3-carboxamide] | 50 to 100% | 50 to 100% | D (No activity noticed in this bioassay) |
| COc1ccccc1-c1cccc(C(=S)Nc2ccc(-c3ncn(-c4ccc(OC(F)(F)F)cc4)n3)cc2)c1 [F21, 2′-Methoxy-N-(4-(1-(4-(trifluoromethoxy)phenyl)-1H-1,2,4-triazol-3-yl)phenyl)-[1,1′-biphenyl]-3-carbothioamide] | 50 to 100% | 50 to 100% | A (80-100) |
| Cc1ccccc1-c1cccc(C(=O)Nc2ccc(-c3ncn(-c4ccc(OC(F)(F)F)cc4)n3)cc2)c1 [F17, 2′-Methyl-N-(4-(1-(4-(trifluoromethoxy)phenyl)-1H-1,2,4-triazol-3-yl)phenyl)-[1,1′-biphenyl]-3-carboxamide] | 50 to 100% | 50 to 100% | D (No activity noticed in this bioassay) |
| CN(C)c1ccccc1-c1cccc(C(=O)NCCc2ccc(-c3ncn(-c4ccc(OC(F)(F)F)cc4)n3)cc2)c1 [F52, 2′-(Dimethylamino)-N-(4-(1-(4-(trifluoromethoxy)phenyl)-1H-1,2,4-triazol-3-yl)phenethyl)-[1,1′-biphenyl]-3-carboxamide] | 50 to 100% | 50 to 100% | A (80-100) |
| COc1ccccc1-c1cccc(C(=O)Nc2ccc(-c3ncn(-c4ccc(OC(F)(F)F)cc4)n3)cc2)c1 [F22, 2′-Methoxy-N-(4-(1-(4-(trifluoromethoxy)phenyl)-1H-1,2,4-triazol-3-yl)phenyl)-[1,1′-biphenyl]-3-carboxamide] | 50 to 100% | 50 to 100% | A (80-100) |
| O=C(Nc1ccc(-c2ncn(-c3ccc(OC(F)(F)C(F)(F)F)cc3)n2)cc1)c1cccc(-c2ccccc2OC(F)(F)F)c1 [F36, N-(4-(1-(4-(Perfluoroethoxy)phenyl)-1H-1,2,4-triazol-3-yl)phenyl)-2′-(trifluoromethoxy)-[1,1′-biphenyl]-3-carboxamide] | 0% | 50 to 100% | D (No activity noticed in this bioassay) |
| COc1ccccc1-c1cccc(C(=S)Nc2ccc(-c3ncn(-c4ccc(OC(F)(F)C(F)(F)F)cc4)n3)cc2)c1 [F23, 2′-methoxy-N-(4-(1-(4-(perfluoroethoxy)phenyl)-1H-1,2,4-triazol-3-yl)phenyl)-[1,1′-biphenyl]-3-carbothioamide] | 50 to 100% | 50 to 100% | A (80-100) |
| O=C(Nc1ccc(-c2ncn(-c3ccc(OC(F)(F)C(F)(F)F)cc3)n2)cc1)c1cccc(-c2ccccc2)n1 [F47, N-(4-(1-(4-(Perfluoroethoxy)phenyl)-1H-1,2,4-triazol-3-yl)phenyl)-6-phenylpicolinamide] | 0% | 0% | D (No activity noticed in this bioassay) |
| COc1ccc(C(=O)Nc2ccc(-c3ncn(-c4ccc(C(F)(F)F)cc4)n3)cc2)cc1-c1ccccc1 [F61, 6-Methoxy-N-(4-(1-(4-(trifluoromethyl)phenyl)-1H-1,2,4-triazol-3-yl)phenyl)-[1,1′-biphenyl]-3-carboxamide] | 50 to 100% | 50 to 100% | A (80-100) |
| COc1ccccc1-c1cccc(C(=O)NCCc2ccc(-c3ncn(-c4ccc(OC(F)(F)F)cc4)n3)cc2)c1 [F50, 2′-methoxy-N-(4-(1-(4-(trifluoromethoxy)phenyl)-1H-1,2,4-triazol-3-yl)phenethyl)-[1,1′-biphenyl]-3-carboxamide] | 50 to 100% | 50 to 100% | D (No activity noticed in this bioassay) |
| O=C(Nc1ccc(-c2ncn(-c3ccc(OC(F)(F)F)cc3)n2)cc1)c1ccc(F)c(-c2ccccc2F)c1 [F28, 2′,6-Difluoro-N-(4-(1-(4-(trifluoromethoxy)phenyl)-1H-1,2,4-triazol-3-yl)phenyl)-[1,1′-biphenyl]-3-carboxamide] | 50 to 100% | 50 to 100% | A (80-100) |

Reference: US9550739B2, “Molecules having certain pesticidal utilities, and intermediates, compositions, and processes related thereto” (priority 2014, dated 2017)
